Results on 5 molecules are retold here after ChEMBL document CHEMBL1201862, “PubChem BioAssay data set” (2004).

The source made the active and inactive calls.

The target of test [1] is T1, Runt-related transcription factor 1/Core-binding factor subunit beta (Homo sapiens, UniProt Q01196+Q13951). Put plainly: Runt domain/CBFb-SMMHC interaction disruptors – biochemical, TR-FRET (AID 1438). The format is protein assay. In general terms: Time-resolved FRET reads energy transfer from a long-lived donor to a nearby acceptor.
T1 sequence (Q01196 whole entry, the tested form may be a part): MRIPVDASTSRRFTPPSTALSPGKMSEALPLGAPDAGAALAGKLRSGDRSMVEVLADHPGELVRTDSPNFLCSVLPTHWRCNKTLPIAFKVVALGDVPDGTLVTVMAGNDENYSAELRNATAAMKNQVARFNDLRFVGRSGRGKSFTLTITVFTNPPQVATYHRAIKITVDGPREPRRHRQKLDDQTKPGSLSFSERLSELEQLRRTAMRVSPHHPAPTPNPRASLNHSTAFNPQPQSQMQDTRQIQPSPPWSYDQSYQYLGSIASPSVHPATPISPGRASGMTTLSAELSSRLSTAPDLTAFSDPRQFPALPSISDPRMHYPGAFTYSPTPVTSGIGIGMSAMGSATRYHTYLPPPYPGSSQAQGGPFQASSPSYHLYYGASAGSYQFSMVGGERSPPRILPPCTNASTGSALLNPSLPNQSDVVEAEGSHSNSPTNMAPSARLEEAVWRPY
T1 sequence (Q13951 whole entry, the tested form may be a part): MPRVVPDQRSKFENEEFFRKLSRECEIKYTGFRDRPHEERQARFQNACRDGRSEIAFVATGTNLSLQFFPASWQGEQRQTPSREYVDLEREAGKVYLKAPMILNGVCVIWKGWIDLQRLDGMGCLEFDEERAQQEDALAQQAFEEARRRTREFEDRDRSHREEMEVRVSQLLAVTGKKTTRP
Test [2] concerns the target T1, Runt-related transcription factor 1/Core-binding factor subunit beta. Put plainly: disruptors of Runt domain/CBFb-SMMHC interaction – biochemical, FRET, Cerulean-Runt, Venus-CBFb-SMMHC, uHTS, […] (AID 1434). The format is protein assay.
Test [3] concerns the target T2, Tyrosine-protein phosphatase non-receptor type 22 (Homo sapiens, UniProt Q9Y2R2).
T2 sequence (Q9Y2R2 whole entry): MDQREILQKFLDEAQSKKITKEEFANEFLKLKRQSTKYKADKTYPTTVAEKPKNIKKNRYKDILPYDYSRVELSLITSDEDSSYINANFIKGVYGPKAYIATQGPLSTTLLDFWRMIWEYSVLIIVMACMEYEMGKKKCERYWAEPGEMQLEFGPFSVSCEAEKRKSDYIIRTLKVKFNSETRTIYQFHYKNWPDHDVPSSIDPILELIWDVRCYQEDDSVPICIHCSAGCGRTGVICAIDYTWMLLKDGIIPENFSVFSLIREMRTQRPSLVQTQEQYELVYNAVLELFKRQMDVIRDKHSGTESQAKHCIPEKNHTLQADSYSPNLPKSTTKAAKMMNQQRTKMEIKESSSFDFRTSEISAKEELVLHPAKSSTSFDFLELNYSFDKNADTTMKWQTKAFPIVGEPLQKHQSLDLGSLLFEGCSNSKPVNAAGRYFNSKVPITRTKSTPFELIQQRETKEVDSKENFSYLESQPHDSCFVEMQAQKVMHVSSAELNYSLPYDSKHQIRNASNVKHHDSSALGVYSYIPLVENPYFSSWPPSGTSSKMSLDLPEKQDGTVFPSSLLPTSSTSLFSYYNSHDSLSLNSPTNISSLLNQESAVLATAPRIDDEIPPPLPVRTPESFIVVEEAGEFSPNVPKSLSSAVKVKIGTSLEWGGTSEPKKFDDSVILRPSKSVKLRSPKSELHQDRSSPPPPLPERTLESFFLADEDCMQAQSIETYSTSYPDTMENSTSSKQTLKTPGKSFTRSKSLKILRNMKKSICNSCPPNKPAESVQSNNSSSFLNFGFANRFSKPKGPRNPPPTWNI
The experiment in a line: SAR LYP1 Fluorescent Assay using OMFP substrate for In Vitro dose response studies - Set 2. [Related pubchem assays (depositor defined):AID1779, AID1784, AID2140, AID449726, AID488869]. It counts as functional.

The target in test [4] is Tyrosine-protein phosphatase non-receptor type 12 (Homo sapiens, UniProt Q05209). Put plainly: SAR Selectivity Analysis of small molecule inhibitors of PEST using pCAP in a fluorescence assay. [Related pubchem assays (depositor defined):AID1779, AID1784, AID2135]. It counts as functional.
Sequence of Tyrosine-protein phosphatase non-receptor type 12 (Q05209 whole entry): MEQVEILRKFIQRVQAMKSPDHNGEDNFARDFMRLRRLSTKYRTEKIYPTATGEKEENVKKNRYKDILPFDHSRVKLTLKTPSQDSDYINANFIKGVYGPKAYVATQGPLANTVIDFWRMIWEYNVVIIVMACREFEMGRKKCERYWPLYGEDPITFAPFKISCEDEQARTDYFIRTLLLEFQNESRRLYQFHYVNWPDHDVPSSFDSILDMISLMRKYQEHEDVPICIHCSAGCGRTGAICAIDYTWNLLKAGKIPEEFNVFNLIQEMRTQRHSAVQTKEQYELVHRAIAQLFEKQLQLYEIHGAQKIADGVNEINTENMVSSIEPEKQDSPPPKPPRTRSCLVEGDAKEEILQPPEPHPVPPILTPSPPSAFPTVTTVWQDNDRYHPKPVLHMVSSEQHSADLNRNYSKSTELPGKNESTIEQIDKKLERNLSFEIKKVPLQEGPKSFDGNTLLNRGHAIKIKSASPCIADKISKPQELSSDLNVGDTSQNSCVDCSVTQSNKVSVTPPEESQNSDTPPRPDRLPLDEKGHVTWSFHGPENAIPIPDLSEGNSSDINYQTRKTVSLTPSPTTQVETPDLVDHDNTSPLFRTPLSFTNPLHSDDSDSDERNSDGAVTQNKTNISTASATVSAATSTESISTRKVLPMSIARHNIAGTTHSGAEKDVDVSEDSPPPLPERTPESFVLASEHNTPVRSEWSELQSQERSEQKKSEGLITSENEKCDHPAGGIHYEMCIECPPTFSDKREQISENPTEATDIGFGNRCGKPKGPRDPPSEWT
The target of test [5] is T3, Tyrosine-protein phosphatase non-receptor type 7 (Homo sapiens, UniProt P35236).
T3 sequence (P35236 whole entry): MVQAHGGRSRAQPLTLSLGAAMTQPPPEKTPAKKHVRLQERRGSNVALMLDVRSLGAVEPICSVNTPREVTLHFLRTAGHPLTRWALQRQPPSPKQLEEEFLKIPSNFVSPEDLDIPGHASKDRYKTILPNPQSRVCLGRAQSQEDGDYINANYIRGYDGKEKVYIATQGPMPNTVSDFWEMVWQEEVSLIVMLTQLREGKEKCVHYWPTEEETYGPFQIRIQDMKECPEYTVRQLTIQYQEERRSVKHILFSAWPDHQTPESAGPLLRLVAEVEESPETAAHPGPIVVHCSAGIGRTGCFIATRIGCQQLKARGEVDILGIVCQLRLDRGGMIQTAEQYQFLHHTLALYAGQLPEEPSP
The experiment in a line: inhibition of hematopoietic tyrosine phosphatase HePTP – biochemical, set 2, SAR follow-up (AID 449736). It counts as functional.

Test [6] addresses T2, Tyrosine-protein phosphatase non-receptor type 22. Put plainly: SAR LYP1 Fluorescent Assay using pCAP substrate for In Vitro dose response studies - Set 2. [Related pubchem assays (depositor defined):AID1779, AID1784, AID2135, AID449727]. It counts as functional.
For test [7] the target is unchanged. The experiment in a line: inhibition of lymphoid tyrosine phosphatase LYP – biochemical, pCAP fluorogenic substrate, fluorescence, set 3, SAR follow-up (AID 449727). It counts as functional.
The target is the same in test [8]. Put plainly: PubChem AID 2135.
Test [9] has the same target. The experiment in a line: SAR LYP1 Fluorescent Assay using OMFP substrate for In Vitro dose response studies - Set 3. [Related pubchem assays (depositor defined):AID1779, AID1784, AID2140, AID2686]. The format is functional.
The target in test [10] is T4, Voltage-dependent T-type calcium channel subunit alpha-1H (Homo sapiens, UniProt O95180). Put plainly: human CACNA1H calcium influx blockade – cell-based, synthetic library set 2, HEK293 HH8, Fluo-4, SAR follow-up (AID 493023). The format is functional.
T4 sequence (O95180 whole entry): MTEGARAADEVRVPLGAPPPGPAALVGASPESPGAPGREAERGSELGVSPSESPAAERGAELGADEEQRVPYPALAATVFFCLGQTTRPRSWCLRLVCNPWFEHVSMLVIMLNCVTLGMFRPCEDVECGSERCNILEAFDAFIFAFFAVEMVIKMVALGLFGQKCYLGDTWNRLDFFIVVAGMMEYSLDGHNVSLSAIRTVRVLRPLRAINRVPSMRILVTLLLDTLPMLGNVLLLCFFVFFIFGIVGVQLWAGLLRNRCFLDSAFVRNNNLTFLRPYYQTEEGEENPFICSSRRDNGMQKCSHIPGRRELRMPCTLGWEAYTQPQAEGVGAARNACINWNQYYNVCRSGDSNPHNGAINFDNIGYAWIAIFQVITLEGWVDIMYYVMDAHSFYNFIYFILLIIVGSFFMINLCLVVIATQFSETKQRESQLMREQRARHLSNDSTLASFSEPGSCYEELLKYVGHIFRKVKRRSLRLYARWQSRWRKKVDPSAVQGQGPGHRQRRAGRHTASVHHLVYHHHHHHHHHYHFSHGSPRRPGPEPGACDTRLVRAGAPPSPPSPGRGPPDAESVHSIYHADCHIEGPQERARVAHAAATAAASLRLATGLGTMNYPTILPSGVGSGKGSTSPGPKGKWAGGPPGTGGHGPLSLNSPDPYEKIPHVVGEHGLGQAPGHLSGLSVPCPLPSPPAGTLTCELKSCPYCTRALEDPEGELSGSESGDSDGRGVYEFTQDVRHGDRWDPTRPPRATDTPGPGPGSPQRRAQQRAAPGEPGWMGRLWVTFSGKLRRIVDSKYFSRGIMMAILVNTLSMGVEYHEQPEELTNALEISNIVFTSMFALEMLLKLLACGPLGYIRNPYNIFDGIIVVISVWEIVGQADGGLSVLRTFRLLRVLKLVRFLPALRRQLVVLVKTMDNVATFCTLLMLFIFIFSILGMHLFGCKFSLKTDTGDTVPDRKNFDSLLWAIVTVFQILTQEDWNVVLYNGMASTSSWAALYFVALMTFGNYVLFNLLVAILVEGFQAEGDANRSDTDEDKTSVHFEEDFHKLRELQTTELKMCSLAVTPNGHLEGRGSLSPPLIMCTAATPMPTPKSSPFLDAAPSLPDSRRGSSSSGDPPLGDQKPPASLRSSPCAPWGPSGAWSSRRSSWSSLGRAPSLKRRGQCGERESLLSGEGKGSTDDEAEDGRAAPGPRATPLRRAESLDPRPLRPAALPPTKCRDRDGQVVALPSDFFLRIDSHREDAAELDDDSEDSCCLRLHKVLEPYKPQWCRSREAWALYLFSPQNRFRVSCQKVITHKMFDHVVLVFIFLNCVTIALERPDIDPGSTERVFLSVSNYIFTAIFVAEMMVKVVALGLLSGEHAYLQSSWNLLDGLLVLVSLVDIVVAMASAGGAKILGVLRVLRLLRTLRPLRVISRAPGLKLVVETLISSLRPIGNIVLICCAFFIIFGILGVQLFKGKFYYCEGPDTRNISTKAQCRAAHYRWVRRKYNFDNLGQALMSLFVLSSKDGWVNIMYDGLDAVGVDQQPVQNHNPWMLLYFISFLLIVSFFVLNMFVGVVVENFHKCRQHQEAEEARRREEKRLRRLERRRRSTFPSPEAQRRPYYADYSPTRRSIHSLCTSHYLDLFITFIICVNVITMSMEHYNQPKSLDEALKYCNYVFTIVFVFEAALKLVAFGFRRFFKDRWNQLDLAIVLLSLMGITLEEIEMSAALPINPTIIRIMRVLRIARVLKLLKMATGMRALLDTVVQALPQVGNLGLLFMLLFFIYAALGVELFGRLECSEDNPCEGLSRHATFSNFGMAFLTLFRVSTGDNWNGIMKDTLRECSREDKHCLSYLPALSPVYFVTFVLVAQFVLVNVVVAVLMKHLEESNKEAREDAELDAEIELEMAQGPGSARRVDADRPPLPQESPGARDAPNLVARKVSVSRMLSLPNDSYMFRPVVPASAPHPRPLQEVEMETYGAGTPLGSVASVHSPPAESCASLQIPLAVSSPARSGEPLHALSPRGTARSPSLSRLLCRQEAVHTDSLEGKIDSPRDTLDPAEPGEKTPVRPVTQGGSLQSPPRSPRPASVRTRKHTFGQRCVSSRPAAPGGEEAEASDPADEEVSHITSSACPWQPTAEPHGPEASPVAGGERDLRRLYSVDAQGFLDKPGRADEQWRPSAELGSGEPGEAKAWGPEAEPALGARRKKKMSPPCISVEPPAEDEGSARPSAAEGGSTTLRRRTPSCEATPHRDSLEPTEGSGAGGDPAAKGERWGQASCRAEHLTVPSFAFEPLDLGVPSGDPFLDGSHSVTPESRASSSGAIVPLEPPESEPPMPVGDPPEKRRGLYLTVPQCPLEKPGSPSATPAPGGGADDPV
In test [11] the target is T4, Voltage-dependent T-type calcium channel subunit alpha-1H. Put plainly: Inhibitors of T-Type Calcium Channels (Cav3.2 HEK whole cell CRC). [Related pubchem assays (depositor defined):AID449739, AID463087, AID489005, AID493021, AID493022, AID493023, AID493041, AID504579, AID504584]. It counts as functional, cell-based, HEK293.
Test [12] concerns the target Glucose-6-phosphate 1-dehydrogenase (Homo sapiens, UniProt P11413). The experiment in a line: inhibition of Homo sapiens G6PD, dose series – biochemical, fluorescence, selectivity assay for P. falciparum G6PD inhibitor project, dose response (AID 504792). It counts as functional.
The nature of test [13]: toxicity toward cultured mammalian cells – cell-based, plate reader, cherry-pick samples, cytotoxicity control, dose response (AID 504397). It counts as functional.
The next test concerns the target T5, CAAX prenyl protease 2 (Saccharomyces cerevisiae S288c, UniProt Q03530).
T5 sequence (Q03530 whole entry): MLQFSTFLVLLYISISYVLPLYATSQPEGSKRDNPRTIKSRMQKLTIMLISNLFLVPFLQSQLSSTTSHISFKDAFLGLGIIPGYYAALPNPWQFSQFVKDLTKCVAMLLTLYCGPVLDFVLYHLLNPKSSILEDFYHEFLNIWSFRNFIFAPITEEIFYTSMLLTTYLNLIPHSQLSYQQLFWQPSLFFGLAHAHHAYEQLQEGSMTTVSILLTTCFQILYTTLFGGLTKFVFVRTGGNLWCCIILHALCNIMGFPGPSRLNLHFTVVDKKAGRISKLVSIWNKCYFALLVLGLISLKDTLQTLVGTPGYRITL
The format is biochemical.

In test [14] the target is G-protein coupled receptor 55 (Homo sapiens, UniProt Q9Y2T6). The experiment in a line: selective activators of receptor GPR55 – imaging, U2OS cells, beta-arrestin-GFP redistribution, primary screen (AID 1961). The format is functional.
Sequence of G-protein coupled receptor 55 (Q9Y2T6 whole entry): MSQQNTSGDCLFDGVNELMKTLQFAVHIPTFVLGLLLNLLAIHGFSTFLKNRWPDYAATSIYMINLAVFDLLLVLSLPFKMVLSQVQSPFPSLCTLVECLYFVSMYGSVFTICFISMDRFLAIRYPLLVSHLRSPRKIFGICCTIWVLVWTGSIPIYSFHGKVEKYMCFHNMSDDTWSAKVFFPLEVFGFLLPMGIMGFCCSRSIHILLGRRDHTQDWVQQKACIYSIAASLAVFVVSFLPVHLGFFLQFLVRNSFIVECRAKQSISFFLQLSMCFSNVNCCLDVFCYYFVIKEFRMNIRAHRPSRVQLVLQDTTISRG
Another test has as its target Trypsin (Sus scrofa, UniProt P00761). The experiment in a line: trypsin protease activity blockade – biochemical, quenched peptide fluorescence, cherry-pick, selectivity assay for Rce1 protease inhibitor project, dose response (AID 488789).
The target in test [15] is DNA repair and recombination protein RAD54-like (Homo sapiens, UniProt Q92698). Put plainly: RAD54 Holliday junction migration blockers – biochemical, fluorescence, cherry-picked samples, dose series, confirmation (AID 651657). The format is functional.
Test [16] has as its target T6, Ubiquitin-conjugating enzyme E2 N (Homo sapiens, UniProt P61088).
T6 sequence (P61088 whole entry): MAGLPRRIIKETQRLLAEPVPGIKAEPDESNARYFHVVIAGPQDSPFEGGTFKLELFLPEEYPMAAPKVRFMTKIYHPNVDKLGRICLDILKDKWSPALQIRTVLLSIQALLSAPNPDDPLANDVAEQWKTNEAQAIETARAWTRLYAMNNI
It counts as functional.

The target of test [17] is T7, Apoptotic protease-activating factor 1 (Homo sapiens, UniProt O14727).
T7 sequence (O14727 whole entry): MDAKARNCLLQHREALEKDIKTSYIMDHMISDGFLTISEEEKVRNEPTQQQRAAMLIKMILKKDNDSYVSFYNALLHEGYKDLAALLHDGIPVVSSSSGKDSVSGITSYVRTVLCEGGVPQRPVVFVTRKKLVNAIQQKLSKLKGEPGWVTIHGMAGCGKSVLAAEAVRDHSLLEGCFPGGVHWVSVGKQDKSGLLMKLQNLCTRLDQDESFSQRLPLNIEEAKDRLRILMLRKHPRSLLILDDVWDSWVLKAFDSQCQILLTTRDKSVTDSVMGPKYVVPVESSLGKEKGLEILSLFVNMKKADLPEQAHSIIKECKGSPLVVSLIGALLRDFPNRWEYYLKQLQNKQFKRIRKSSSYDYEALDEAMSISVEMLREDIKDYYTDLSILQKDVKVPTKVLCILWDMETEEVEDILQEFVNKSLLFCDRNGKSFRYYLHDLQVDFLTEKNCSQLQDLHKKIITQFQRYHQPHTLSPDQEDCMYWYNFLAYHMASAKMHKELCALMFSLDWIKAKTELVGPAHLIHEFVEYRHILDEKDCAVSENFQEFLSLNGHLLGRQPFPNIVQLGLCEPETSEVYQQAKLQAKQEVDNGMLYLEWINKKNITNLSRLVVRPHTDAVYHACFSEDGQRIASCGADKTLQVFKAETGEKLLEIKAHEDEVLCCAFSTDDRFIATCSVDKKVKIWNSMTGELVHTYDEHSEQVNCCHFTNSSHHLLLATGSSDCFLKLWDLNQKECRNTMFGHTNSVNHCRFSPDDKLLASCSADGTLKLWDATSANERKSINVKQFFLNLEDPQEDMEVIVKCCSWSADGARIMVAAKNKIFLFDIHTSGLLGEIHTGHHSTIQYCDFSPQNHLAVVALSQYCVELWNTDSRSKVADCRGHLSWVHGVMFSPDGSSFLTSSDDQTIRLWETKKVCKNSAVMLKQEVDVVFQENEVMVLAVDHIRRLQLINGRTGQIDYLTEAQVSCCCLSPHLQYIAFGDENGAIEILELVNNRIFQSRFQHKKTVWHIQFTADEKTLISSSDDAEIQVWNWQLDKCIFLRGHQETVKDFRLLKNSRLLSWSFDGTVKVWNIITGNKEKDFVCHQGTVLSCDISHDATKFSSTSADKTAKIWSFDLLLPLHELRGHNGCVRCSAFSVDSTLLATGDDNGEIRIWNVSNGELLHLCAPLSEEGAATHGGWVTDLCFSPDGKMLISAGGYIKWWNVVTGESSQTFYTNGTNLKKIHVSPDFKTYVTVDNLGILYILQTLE
It counts as functional.

For test [18], the target named is T6, Ubiquitin-conjugating enzyme E2 N. It counts as functional. The source holds these as a separate data set.
Another test concerns the target T8, Bcl-2-related protein A1 (Mus musculus, UniProt Q07440).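 Note: confirmatory dose–response counterscreen on Bfl-1, used to check hits from a UBC13 polyubiquitin inhibitor campaign.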
T8 sequence (Q07440 whole entry): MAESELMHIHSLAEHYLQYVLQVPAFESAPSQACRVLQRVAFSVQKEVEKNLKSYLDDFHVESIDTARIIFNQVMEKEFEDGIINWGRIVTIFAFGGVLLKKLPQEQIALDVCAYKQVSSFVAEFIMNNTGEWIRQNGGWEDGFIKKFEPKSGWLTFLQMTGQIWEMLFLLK
It counts as functional.

In a further test the target is Melanocortin receptor 4 (Homo sapiens, UniProt P32245). The format is functional, cell-based.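 Note: Cell-based assay with luminescence read-out, confirmatory dose-response testing for agonist activity of biased ligands at MC4R; human U2OS cells with tagged receptor and beta-arrestin; potency of agonists that increase receptor coupling to beta-arrestin.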
Sequence of Melanocortin receptor 4 (P32245 whole entry): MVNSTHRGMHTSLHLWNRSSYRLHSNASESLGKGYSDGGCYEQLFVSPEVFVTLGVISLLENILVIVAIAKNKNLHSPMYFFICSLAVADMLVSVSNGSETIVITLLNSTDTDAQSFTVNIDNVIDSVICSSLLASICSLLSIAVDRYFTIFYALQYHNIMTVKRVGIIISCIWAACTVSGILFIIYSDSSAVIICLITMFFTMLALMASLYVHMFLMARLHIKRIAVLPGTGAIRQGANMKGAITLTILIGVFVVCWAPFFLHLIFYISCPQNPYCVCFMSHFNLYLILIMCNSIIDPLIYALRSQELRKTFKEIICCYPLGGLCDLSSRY
Test [19] in a line: cytotoxicity toward MDA-MB-231 breast cancer cells – cell-based, CellTiter-Glo luminescence, cherry-pick, cytotoxicity control for RAD54 inhibitor project, dose response (AID 651692). The format is functional.

Sequence of Glucose-6-phosphate 1-dehydrogenase (P11413 whole entry): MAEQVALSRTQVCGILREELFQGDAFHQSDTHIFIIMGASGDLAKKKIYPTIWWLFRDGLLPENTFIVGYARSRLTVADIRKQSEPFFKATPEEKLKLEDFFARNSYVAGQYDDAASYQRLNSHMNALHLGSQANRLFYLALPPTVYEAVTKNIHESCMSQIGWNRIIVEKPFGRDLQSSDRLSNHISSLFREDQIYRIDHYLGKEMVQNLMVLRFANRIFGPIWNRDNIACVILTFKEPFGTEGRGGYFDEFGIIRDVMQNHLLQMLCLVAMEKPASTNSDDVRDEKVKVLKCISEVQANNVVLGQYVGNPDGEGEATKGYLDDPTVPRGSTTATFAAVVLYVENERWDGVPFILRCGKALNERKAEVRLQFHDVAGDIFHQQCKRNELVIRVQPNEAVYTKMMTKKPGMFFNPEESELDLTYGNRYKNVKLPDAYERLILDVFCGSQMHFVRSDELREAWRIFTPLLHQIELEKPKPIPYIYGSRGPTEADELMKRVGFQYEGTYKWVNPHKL

Regarding `Cc1ccc(CNC(=O)NCc2ccccc2)cc1`, the IC50 in [1] and in test [2] was > 100 µM (inactive) each time.

On to `N#C/C(=C/c1ccc(OCc2ccc(F)cc2)c(Br)c1)c1ccc(C(=O)O)cc1`, for which the IC50 (usually the midpoint of a concentration-inhibition curve) in test [3] was 13.7 µM (active); in test [4] it was 7.56 µM (active); in test [5] it was 1.36 µM (active); in test [6] it was 10.8 µM (active); in test [7] it was 15.8 µM (active); in [8] it was 4.37 µM (active). Also, the IC50 in [9] was 37 µM (active).

Consider `CC(C)(C)CCN1C[C@@H]2[C@@H](CNC(=O)c3cc(Cl)cc(Cl)c3)[C@@H]2C1`, for which the EC50 (commonly the concentration that produces a half-maximal response) in test [10] was 0.15 µM (active). Also, in test [11], the IC50 is 0.036 µM (active).

Consider `Cc1cc(NC(=O)c2oc3ccccc3c2C)ccc1-n1cnnn1`, for which the IC50 in test [12] was > 80 µM (inactive). The results for the AC50 (in [13]; on CAAX prenyl protease 2; on Trypsin) were > 350 µM (inactive), 0.558 µM (active) and > 100 µM (inactive), respectively. Besides, in [14], the EC50 was 2.68 µM (active).

Take `Cc1ccc(-c2csc3nc4c5ccccc5c(NCCCN(C)C)nn4c(=O)c23)cc1`: the values for the AC50 in test [15] and in test [19] were 13.3 µM (active) and 13.6 µM (active), respectively. Also, the IC50 in test [16] is 3.7 µM (active); in [17], 40 µM (active); in test [18], 13.7 µM (active); on Bcl-2-related protein A1, > 20 µM (inactive). Moreover, on Melanocortin receptor 4, the EC50 was > 89.2 µM (inactive).
